Where “and” joins values, the source holds several entries; their conditions need not be identical. Equal values may be shown once. Toxic doses and inconclusive results are not listed.
Test system: L1210 leukemia ip in BDF1 mice, survival T/C
Assay: NCI In Vivo Anticancer Drug Screen. Data for tumor model L1210 Leukemia (intraperitoneal) in B6D2F1 (BDF1) mice
Conditions: endpoint: mean survival time, higher = longer survival
Method in brief: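 Each compound was tested against a transplantable tumor grown in mice. The endpoint was survival, with treated animals benchmarked against vehicle controls as a simple ratio.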

[1] = dose: 100.0 mg/kg/injection, schedule: Q01DX001 (ip), vehicle: saline
[2] = dose: 200.0 mg/kg/injection, schedule: Q01DX001 (ip), vehicle: saline
[3] = dose: 400.0 mg/kg/injection, schedule: Q01DX001 (ip), vehicle: saline
[4] = dose: 100.0 mg/kg/injection, schedule: Q01DX009 (ip), vehicle: Klucel (hydroxypropylcellulose) (HPC)
[5] = dose: 200.0 mg/kg/injection, schedule: Q01DX009 (ip), vehicle: Klucel (hydroxypropylcellulose) (HPC)
[6] = dose: 100.0 mg/kg/injection, schedule: Q04DX002 (ip), vehicle: saline with Tween-80
[7] = dose: 200.0 mg/kg/injection, schedule: Q04DX002 (ip), vehicle: saline with Tween-80
[8] = dose: 400.0 mg/kg/injection, schedule: Q04DX002 (ip), vehicle: saline with Tween-80
[9] = dose: 25.0 mg/kg/injection, schedule: Q01DX009 (ip), vehicle: Klucel (hydroxypropylcellulose) (HPC)
[10] = dose: 50.0 mg/kg/injection, schedule: Q01DX009 (ip), vehicle: Klucel (hydroxypropylcellulose) (HPC)
[11] = dose: 100.0 mg/kg/injection, schedule: Q04DX003 (ip), vehicle: Klucel (hydroxypropylcellulose) (HPC)
[12] = dose: 200.0 mg/kg/injection, schedule: Q04DX003 (ip), vehicle: Klucel (hydroxypropylcellulose) (HPC)

O=C1CC(c2ccc(O)cc2)C2(O1)C(=O)OC(C(O)CO)C2O (centres undefined)
T/C [1]: 98 % of control | T/C [2]: 101 % of control | T/C [3]: 96 % of control

COC(=O)C1CC(C(N)=O)CC1OC(C)=O (centres undefined)
T/C [4]: 100 % of control | T/C [5]: 93 % of control | T/C (dose: 400.0 mg/kg/injection, schedule: Q01DX009 (ip), vehicle: Klucel (hydroxypropylcellulose) (HPC)): 98 % of control

NC(N)=N/N=C/CO
T/C (dose: 7.5 mg/kg/injection, schedule: Q01DX Z (oral), vehicle: saline): 106 % of control | T/C (dose: 15.0 mg/kg/injection, schedule: Q01DX Z (oral), vehicle: saline): 100 % of control | T/C (dose: 30.0 mg/kg/injection, schedule: Q01DX Z (oral), vehicle: saline): 107 % of control | T/C (dose: 60.0 mg/kg/injection, schedule: Q01DX Z (oral), vehicle: saline): 101 % of control | T/C (dose: 120.0 mg/kg/injection, schedule: Q01DX Z (oral), vehicle: saline): 102 % of control | T/C (dose: 240.0 mg/kg/injection, schedule: Q01DX Z (oral), vehicle: saline): 110 % of control

Nc1nc(=S)c2[nH]c(=S)[nH]c2[nH]1
T/C (dose: 12.0 mg/kg/injection, schedule: Q01DX009 (ip), vehicle: saline): 119 % of control | T/C (dose: 15.0 mg/kg/injection, schedule: Q01DX Z (ip), vehicle: saline): 119 % of control | T/C (dose: 23.0 mg/kg/injection, schedule: Q01DX Z (ip), vehicle: saline): 124 % of control | T/C (dose: 175.0 mg/kg/injection, schedule: Q01DX001 (ip), vehicle: saline): 121 % of control | T/C (dose: 400.0 mg/kg/injection, schedule: Q01DX Z (ip), vehicle: carboxymethylcellulose (CMC)): 98 % of control

O=C(O)C1(C(=O)O)CCOCC1
T/C (dose: 50.0 mg/kg/injection, schedule: Q04DX003 (ip), vehicle: saline): 93 % of control | T/C (dose: 100.0 mg/kg/injection, schedule: Q01DX009 (ip), vehicle: saline): 104 % of control | T/C (dose: 100.0 mg/kg/injection, schedule: Q04DX003 (ip), vehicle: saline): 98 % of control | T/C (dose: 200.0 mg/kg/injection, schedule: Q01DX009 (ip), vehicle: saline): 102 % of control | T/C (dose: 200.0 mg/kg/injection, schedule: Q04DX003 (ip), vehicle: saline): 104 % of control | T/C (dose: 400.0 mg/kg/injection, schedule: Q01DX009 (ip), vehicle: saline): 96 % of control | T/C (dose: 400.0 mg/kg/injection, schedule: Q04DX003 (ip), vehicle: saline): 103 % of control

C1CCC2C(C1)CC1CCCCC12 (centres undefined)
T/C [6]: 101 % of control | T/C [7]: 105 % of control | T/C [8]: 101 % of control

NC1CCC2CCCCC2C1 (centres undefined)
T/C [9]: 101 % of control | T/C (dose: 25.0 mg/kg/injection, schedule: Q04DX003 (ip), vehicle: Klucel (hydroxypropylcellulose) (HPC)): 95 % of control | T/C [10]: 93 % of control | T/C (dose: 50.0 mg/kg/injection, schedule: Q04DX003 (ip), vehicle: Klucel (hydroxypropylcellulose) (HPC)): 100 % of control | T/C [4]: 98 % of control | T/C [11]: 94 % of control

CC(C)c1cc(CN(C)C)cc(C(C)C)c1O
T/C [11]: 95 % of control | T/C [12]: 102 % of control

Cc1nc2ccccc2c(=O)n1-c1ccccc1Cl
T/C (dose: 100.0 mg/kg/injection, schedule: Q01DX001 (ip), vehicle: saline with Tween-80): 113 % of control | T/C (dose: 200.0 mg/kg/injection, schedule: Q01DX001 (ip), vehicle: saline with Tween-80): 108 % of control | T/C (dose: 400.0 mg/kg/injection, schedule: Q01DX001 (ip), vehicle: saline with Tween-80): 106 % of control

[CH3][Pb]([CH3])([CH3])[O]P(=O)(O)c1ccccc1
T/C (dose: 3.12 mg/kg/injection, schedule: Q04DX002 (ip), vehicle: saline): 98 % of control | T/C (dose: 6.25 mg/kg/injection, schedule: Q04DX002 (ip), vehicle: saline): 103 % of control | T/C (dose: 12.5 mg/kg/injection, schedule: Q04DX002 (ip), vehicle: saline): 98 % of control and 101 % of control

COc1cc(NC(=O)Nc2ccc(F)c(Cl)c2)c(OC)cc1Cl
T/C (dose: 100.0 mg/kg/injection, schedule: Q04DX002 (ip), vehicle: Klucel (hydroxypropylcellulose) (HPC)): 100 % of control | T/C (dose: 200.0 mg/kg/injection, schedule: Q04DX002 (ip), vehicle: Klucel (hydroxypropylcellulose) (HPC)): 93 % of control | T/C (dose: 400.0 mg/kg/injection, schedule: Q04DX002 (ip), vehicle: Klucel (hydroxypropylcellulose) (HPC)): 86 % of control

O=C(O)C1(c2ccccc2)OC1c1ccccc1 (centres undefined)
T/C (dose: 100.0 mg/kg/injection, schedule: Q01DX001 (ip), vehicle: Klucel (hydroxypropylcellulose) (HPC)): 93 % of control | T/C [11]: 95 % of control | T/C (dose: 100.0 mg/kg/injection, schedule: Q04DX003 (ip), vehicle: saline with Tween-80): 90 % of control | T/C (dose: 200.0 mg/kg/injection, schedule: Q01DX001 (ip), vehicle: Klucel (hydroxypropylcellulose) (HPC)): 91 % of control | T/C [12]: 95 % of control | T/C (dose: 200.0 mg/kg/injection, schedule: Q04DX003 (ip), vehicle: saline with Tween-80): 86 % of control | T/C (dose: 400.0 mg/kg/injection, schedule: Q01DX001 (ip), vehicle: Klucel (hydroxypropylcellulose) (HPC)): 93 % of control | T/C (dose: 400.0 mg/kg/injection, schedule: Q04DX003 (ip), vehicle: Klucel (hydroxypropylcellulose) (HPC)): 86 % of control | T/C (dose: 400.0 mg/kg/injection, schedule: Q04DX003 (ip), vehicle: saline with Tween-80): 92 % of control

COc1cc(C=Nc2cc(Br)cc(Br)c2)ccc1N(CCCl)CCCl
T/C (dose: 1.31 mg/kg/injection, schedule: Q01DX009 (ip), vehicle: other): 113 % of control | T/C (dose: 2.62 mg/kg/injection, schedule: Q01DX009 (ip), vehicle: other): 104 % of control | T/C (dose: 12.5 mg/kg/injection, schedule: Q01DX001 (ip), vehicle: other): 106 % of control | T/C (dose: 25.0 mg/kg/injection, schedule: Q01DX001 (ip), vehicle: other): 120 % of control | T/C (dose: 50.0 mg/kg/injection, schedule: Q01DX009 (ip), vehicle: other): 124 % of control | T/C (dose: 118.0 mg/kg/injection, schedule: Q01DX001 (ip), vehicle: carboxymethylcellulose (CMC)): 123 % of control | T/C (dose: 177.0 mg/kg/injection, schedule: Q01DX001 (ip), vehicle: carboxymethylcellulose (CMC)): 94 % of control and 108 % of control | T/C (dose: 200.0 mg/kg/injection, schedule: Q01DX001 (ip), vehicle: carboxymethylcellulose (CMC)): 124 % of control | T/C (dose: 266.0 mg/kg/injection, schedule: Q01DX001 (ip), vehicle: carboxymethylcellulose (CMC)): 88 % of control | T/C (dose: 400.0 mg/kg/injection, schedule: Q01DX001 (ip), vehicle: carboxymethylcellulose (CMC)): 179 % of control

CCN=C(c1ccc(NC(=O)c2ccc(C(=O)Nc3ccc(C(=NCC)N(CC)C(=O)NCCCl)cc3)cc2)cc1)N(CC)C(=O)NCCCl
T/C (dose: 3.75 mg/kg/injection, schedule: Q01DX015 (ip), vehicle: methylcellulose (MC)): 107 % of control | T/C (dose: 7.5 mg/kg/injection, schedule: Q01DX015 (ip), vehicle: methylcellulose (MC)): 113 % of control

Clc1c(Cl)c([O][Sn]([c]2ccccc2)([c]2ccccc2)[c]2ccccc2)c(Cl)c(Cl)c1[O][Sn]([c]1ccccc1)([c]1ccccc1)[c]1ccccc1
T/C (dose: 3.12 mg/kg/injection, schedule: Q01DX009 (ip), vehicle: Klucel (hydroxypropylcellulose) (HPC)): 108 % of control | T/C (dose: 6.25 mg/kg/injection, schedule: Q01DX009 (ip), vehicle: Klucel (hydroxypropylcellulose) (HPC)): 91 % of control | T/C [9]: 90 % of control

CCN(CC)C(=O)Oc1ccc(C(C)=O)cc1
T/C [6]: 103 % of control | T/C [7]: 100 % of control | T/C [8]: 114 % of control

O=C1C=CC(=O)N1Cc1ccncc1
T/C [1]: 101 % of control | T/C [2]: 95 % of control | T/C [3]: 95 % of control

Cc1ccccc1SC(=O)Nc1cccc(Cl)c1Cl
T/C [9]: 112 % of control | T/C [10]: 104 % of control | T/C [4]: 94 % of control and 103 % of control | T/C [5]: 87 % of control

CCC1COC(=S)N1 (centres undefined)
T/C (dose: 6.25 mg/kg/injection, schedule: Q01DX001 (ip), vehicle: Klucel (hydroxypropylcellulose) (HPC)): 93 % of control | T/C (dose: 6.25 mg/kg/injection, schedule: Q01DX009 (ip), vehicle: saline): 91 % of control | T/C (dose: 12.5 mg/kg/injection, schedule: Q01DX001 (ip), vehicle: Klucel (hydroxypropylcellulose) (HPC)): 108 % of control | T/C (dose: 12.5 mg/kg/injection, schedule: Q01DX009 (ip), vehicle: saline): 105 % of control | T/C (dose: 25.0 mg/kg/injection, schedule: Q01DX001 (ip), vehicle: Klucel (hydroxypropylcellulose) (HPC)): 100 % of control | T/C (dose: 25.0 mg/kg/injection, schedule: Q04DX002 (ip), vehicle: saline with Tween-80): 103 % of control

Source: PubChem BioAssay AID248 (DTP/NCI, 2004)
